Data on 18 molecules can be found in ChEMBL document CHEMBL1131758, “5-fluoro-2-methyl-N-[5-(5H-pyrrolo[2,1-c][1,4]benzodiazepine-10(11H)-yl carbonyl)-2-pyridinyl]benzamide (CL-385004) and analogs as orally active arginine vasopressin receptor antagonists” (Bioorg Med Chem Lett, 1999).

Data set [1] has as its target T1, Vasopressin V2 receptor (Rattus norvegicus, UniProt Q00788). The data set is described as follows: Displacement of P[3H]-AVP from isolated rat kidney medullary V2 receptor.
Data set [2] addresses T2, Vasopressin V1a receptor (Rattus norvegicus, UniProt P30560). The data set is described as follows: Displacement of (Phe-3,4,5 [3H]-) AVP from isolated rat hepatic V1a receptor.
For data set [3], the system named is Rattus norvegicus. The data set is described as follows: Amount of urine output was measured in rat at a dose of 10 mg/kg/po. It is filed as ADME, organism-based. To be noted: in vivo.
Data set [4] has as its target Vasopressin V1a receptor (Rattus norvegicus) (UniProt P30560). Nature of the data set: In vitro inhibition of (Phe-3,4,5 [3H]-) AVP binding towards isolated rat hepatic V1a receptor at a dose of 10 uM.
Data set [5] has as its target Vasopressin V2 receptor (Rattus norvegicus) (UniProt Q00788). The data set is described as follows: In vitro inhibition of (P[3H]-AVP binding towards isolated rat kidney medullary V2 receptor at a dose of 10 uM.
The target in data set [6] is T2, Vasopressin V1a receptor. Nature of the data set: In vitro inhibition of (Phe-3,4,5 [3H]-) AVP binding towards isolated rat hepatic Vasopressin V1a receptor.
Data set [7] concerns the target T1, Vasopressin V2 receptor. Nature of the data set: In vitro inhibition of (P[3H]-AVP binding towards isolated rat kidney medullary Vasopre ssin V2 receptor.
Data set [8] has as its system Rattus norvegicus. Nature of the data set: Amount of urine output was measured in rat at a dose of 1 mg/kg/po. The conditions noted are these: in vivo. The class given is ADME, organism-based.

Chain of Vasopressin V1a receptor (Rattus norvegicus) (P30560 whole entry, looked up): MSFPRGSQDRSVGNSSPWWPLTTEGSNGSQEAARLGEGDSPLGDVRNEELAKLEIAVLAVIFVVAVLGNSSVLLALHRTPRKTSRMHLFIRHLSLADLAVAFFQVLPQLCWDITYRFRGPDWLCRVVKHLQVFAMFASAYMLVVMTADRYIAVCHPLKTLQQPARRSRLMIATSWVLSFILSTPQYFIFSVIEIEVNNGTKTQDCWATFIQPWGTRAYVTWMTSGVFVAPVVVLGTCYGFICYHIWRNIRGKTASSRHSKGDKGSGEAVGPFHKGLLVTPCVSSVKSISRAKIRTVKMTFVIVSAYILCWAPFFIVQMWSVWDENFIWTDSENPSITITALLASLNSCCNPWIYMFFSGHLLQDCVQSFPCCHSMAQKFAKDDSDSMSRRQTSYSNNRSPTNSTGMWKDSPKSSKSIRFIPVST
T2 sequence (P30560 whole entry): as the sequence (P30560 whole entry, looked up) above
T1 sequence (Q00788 whole entry): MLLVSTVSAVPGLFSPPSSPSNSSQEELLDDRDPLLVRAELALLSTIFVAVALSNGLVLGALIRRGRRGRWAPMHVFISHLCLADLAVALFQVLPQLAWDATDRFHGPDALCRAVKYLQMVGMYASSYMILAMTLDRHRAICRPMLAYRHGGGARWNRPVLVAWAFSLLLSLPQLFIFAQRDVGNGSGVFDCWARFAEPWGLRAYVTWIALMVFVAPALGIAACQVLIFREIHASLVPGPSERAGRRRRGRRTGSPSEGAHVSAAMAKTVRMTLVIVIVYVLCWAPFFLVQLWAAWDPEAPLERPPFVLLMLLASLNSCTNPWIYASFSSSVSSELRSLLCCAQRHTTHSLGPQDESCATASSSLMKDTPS
Chain of Vasopressin V2 receptor (Rattus norvegicus) (Q00788 whole entry): as above

In general, IC50 refers to the concentration that inhibits the measured activity by half. A high value points to lower potency. For `Cc1ccc(F)cc1C(=O)Nc1ccc(C(=O)N2Cc3cccn3Cc3ccccc32)c(Cl)c1` [LIXIVAPTAN], the IC50 in data set [1] worked out at 0.5 nM; in data set [2], 82 nM. Also, the Urine volume in data set [3] is 35 ml 4hr-1.
With `O=C(Nc1ccc(C(=O)N2Cc3cccn3Cc3ccccc32)cn1)c1cc(-c2ccccn2)ccc1Cl`, the half-maximal inhibitory concentration (IC50) turned out to be 480 nM in data set [1] and 260 nM in data set [2].
For orientation: inhibition means the change of the read-out against control, counted positive when it falls. Low readings indicate little suppression, high ones strong suppression. In the case of `Nc1ccccc1C(=O)Nc1ccc(C(=O)N2Cc3cccn3Cc3ccccc32)cn1`, the half-inhibitory concentration (IC50) in data set [1] came out at 210 nM. The inhibition in data set [4] was determined as 29%.
For the molecule `COc1cc(C(=O)Nc2ccc(C(=O)N3Cc4cccn4Cc4ccccc43)cn2)cc(OC)c1OC`, the inhibition in data set [5] was found to be 41%; in data set [4] it was 51%.
Consider `Cc1ccccc1C(=O)Nc1ccc(C(=O)N2Cc3cccn3Cc3ccccc32)cn1`, for which the IC50 stood at 21 nM in data set [6] and 3 nM in data set [7]. The molecule further showed a Urine volume in data set [3] of 5.3 ml 4hr-1.
For `Cc1ccc(F)cc1C(=O)Nc1ccc(C(=O)N2Cc3ccc(CN(C)C)n3Cc3ccccc32)cn1`, the IC50 in data set [1] is 33 nM; in data set [2] it was 99 nM. This molecule also yielded a Urine volume in data set [3] of 12.5 ml 4hr-1.
As to `O=C(Nc1ccc(C(=O)N2Cc3cccn3Cc3ccccc32)cn1)c1cc(F)ccc1F`, the half-inhibitory concentration (IC50) came to 240 nM in data set [1] and 310 nM in data set [2]. Also, in data set [3], the Urine volume was 11.8 ml 4hr-1.
The matching figures for `O=C(Nc1ccc(C(=O)N2Cc3cccn3Cc3ccccc32)cn1)c1ccccc1-c1ccccc1`: 8.3 nM, 30 nM and 16.5 ml 4hr-1.
Molecule `Cc1ccc(F)cc1C(=O)N(CCCN(C)C)c1ccc(C(=O)N2Cc3cccn3Cc3ccccc32)cn1` yielded a concentration for half-maximal inhibition (IC50) in data set [1] of 290 nM. In addition, the inhibition in data set [4] came to 68%.
Regarding `O=C(Nc1ccc(C(=O)N2Cc3cccn3Cc3ccccc32)cn1)c1c(F)cccc1Cl`, the IC50 in data set [1] amounted to 4 nM; in data set [2], 40 nM. This molecule displayed a Urine volume in data set [3] of 15.8 ml 4hr-1.
In data set [8], `Cc1ccc(F)cc1C(=O)Nc1ccc(C(=O)N2Cc3cccn3Cc3ccccc32)cn1` yielded a Urine volume of 20 ml 4hr-1.
On to `O=C(Nc1ccc(C(=O)N2Cc3cccn3Cc3ccccc32)cn1)c1cc(Cl)ccc1Cl`, for which the IC50 was found to be 4.3 nM in data set [1] and 100 nM in data set [2]. For the same molecule, the Urine volume in data set [3] turned out to be 19.3 ml 4hr-1.
As for `O=C(Nc1ccc(C(=O)N2Cc3cccn3Cc3ccccc32)cn1)c1ccccc1[N+](=O)[O-]`, the concentration for half-maximal inhibition (IC50) came out at 160 nM in data set [1] and 920 nM in data set [2].
For `O=C(Nc1ccc(C(=O)N2Cc3cccn3Cc3ccccc32)cn1)c1ccc(F)cc1Cl`, the Urine volume in data set [3] was 30.5 ml 4hr-1.
Same read-out and setting: under `O=C(Nc1ccc(C(=O)N2Cc3cccn3Cc3ccccc32)cn1)c1ccccc1Cl` stands 4 ml 4hr-1.
Take `O=C(Nc1ccc(C(=O)N2Cc3cccn3Cc3ccccc32)cn1)c1ccc(F)cc1F`: the inhibition in data set [5] came to 58%; in data set [4], 37%.
For the molecule `Cc1c(F)cccc1C(=O)Nc1ccc(C(=O)N2Cc3cccn3Cc3ccccc32)cn1`, the IC50 in data set [2] turned out to be 9 nM. For the same molecule, in data set [3], the Urine volume was found to be 34 ml 4hr-1.
For `O=C(Nc1ccc(C(=O)N2Cc3cccn3Cc3ccccc32)cn1)c1cc(Br)ccc1Cl`, the 50% inhibitory concentration (IC50) in data set [1] was 7.3 nM; in data set [2], 82 nM. The same molecule came in with a Urine volume in data set [3] of 16.5 ml 4hr-1.
